From patent US10888550B2, “Pyrazole derivatives as MALT1 inhibitors” (Janssen Pharmaceutica NV, priority 2018, dated 2021)

Tests used:
[1] = molecular target: full-length MALT1 protein (Strep-MALT1(1-824)-His) (Homo sapiens (Human), UniProt Q9UDY8); assay: MALT1 Biochemical Protease Assay; conditions: read-out: MALT1_Biochemical activity (Ac-LRSR-amc) IC50; 10 nM FL MALT1, 200 μM Ac-LRSR-AMC, 50 min pre-incubation, 4 h at RT
Description: From this an ICso value (inhibitory concentration causing 50% inhibition) can be obtained.

[2] = system: IL6 secretion, OCI-LY3 cells; assay: Human IL6 Mesoscale assay (OCI-LY3); assay type: cell-based; conditions: 24 h incubation
[3] = system: IL10 secretion, OCI-LY3 cells; assay: Human IL10 Mesoscale assay (OCI-LY3); assay type: cell-based; conditions: 24 h incubation

full-length MALT1 protein (Strep-MALT1(1-824)-His), sequence (Q9UDY8 whole entry): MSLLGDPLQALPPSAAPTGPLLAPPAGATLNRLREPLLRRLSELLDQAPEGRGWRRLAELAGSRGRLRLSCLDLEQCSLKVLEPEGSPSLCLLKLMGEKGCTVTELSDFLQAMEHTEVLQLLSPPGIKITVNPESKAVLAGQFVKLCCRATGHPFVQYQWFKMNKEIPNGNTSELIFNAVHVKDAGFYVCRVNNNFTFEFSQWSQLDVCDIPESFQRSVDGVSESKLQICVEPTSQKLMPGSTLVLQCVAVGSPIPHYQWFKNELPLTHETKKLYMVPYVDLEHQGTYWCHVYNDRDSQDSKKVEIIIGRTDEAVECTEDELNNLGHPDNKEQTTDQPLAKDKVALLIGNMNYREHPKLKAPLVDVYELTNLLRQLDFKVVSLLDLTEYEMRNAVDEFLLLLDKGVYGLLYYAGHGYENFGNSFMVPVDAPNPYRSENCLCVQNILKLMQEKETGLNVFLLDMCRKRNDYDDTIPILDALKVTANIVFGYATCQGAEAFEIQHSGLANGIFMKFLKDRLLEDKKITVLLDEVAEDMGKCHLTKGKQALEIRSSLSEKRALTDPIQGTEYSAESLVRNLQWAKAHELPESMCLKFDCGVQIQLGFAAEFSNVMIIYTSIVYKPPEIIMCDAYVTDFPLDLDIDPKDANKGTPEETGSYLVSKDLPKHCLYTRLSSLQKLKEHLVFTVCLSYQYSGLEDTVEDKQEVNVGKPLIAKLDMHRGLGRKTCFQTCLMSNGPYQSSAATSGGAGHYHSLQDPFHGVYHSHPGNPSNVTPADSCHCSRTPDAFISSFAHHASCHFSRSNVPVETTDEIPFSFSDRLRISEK

SMILES | IC50 [1] | IC50 [2] | IC50 [3]
N#Cc1ccc(-n2ncc(C(=O)Nc3cnc(-n4nccn4)c(Cl)c3)c2C(F)(F)F)n2ccnc12 [Cpd 2, N-(5-chloro-6-(2H-1,2,3-triazol-2-yl)pyridin-3-yl)-1-(8-cyanoimidazo[1,2-a]pyridin-5-yl)-5-(trifluoromethyl)-1H-pyrazole-4-carboxamide] | 38 nM | 83 nM | 47 nM
O=C(Nc1cnc([C@@H]2CCCO2)c(Cl)c1)c1cnn(-c2ccc(Cl)n3nccc23)c1C(F)(F)F (single isomer, unassigned) [Cpd 21, (*S)—N-(5-chloro-6-(tetrahydrofuran-2-yl)pyridin-3-yl)-1-(7-chloropyrazolo[1,5-a]pyridin-4-yl)-5-(trifluoromethyl)-1H-pyrazole-4-carboxamide] | 87 nM | 245 nM | 200 nM
CS(=O)(=O)c1ncc(NC(=O)c2cnn(-c3ccc(F)c4nccn34)c2C(F)(F)F)cc1C(F)(F)F [Cpd 5, 1-(8-fluoroimidazo[1,2-a]pyridin-5-yl)-N-(6-(methylsulfonyl)-5-(trifluoromethyl)pyridin-3-yl)-5-(trifluoromethyl)-1H-pyrazole-4-carboxamide] | 372 nM | 281 nM | 371 nM
Cc1ccc(-n2ncc(C(=O)Nc3cnc(-n4nccn4)c(Cl)c3)c2C(F)(F)F)n2ccnc12 [Cpd 7, N-(5-chloro-6-(2H-1,2,3-triazol-2-yl)pyridin-3-yl)-1-(8-methylimidazo[1,2-a]pyridin-5-yl)-5-(trifluoromethyl)-1H-pyrazole-4-carboxamide] | 120 nM | 219 nM | 65 nM

Continued by falling IC50 [1], values first:

IC50 [1] | IC50 [2] | IC50 [3] | SMILES
251 nM | 151 nM | 114 nM | O=C(Nc1cnc(-n2cccn2)c(Cl)c1)c1cnn(-c2ccc(F)c3nccn23)c1C(F)(F)F [Cpd 3, N-(5-chloro-6-(1H-pyrazol-1-yl)pyridin-3-yl)-1-(8-fluoroimidazo[1,2-a]pyridin-5-yl)-5-(trifluoromethyl)-1H-pyrazole-4-carboxamide]
209 nM | 115 nM | 501 nM | O=C(Nc1ccnc(C(F)(F)F)c1)c1cnn(-c2ccc(Cl)n3nccc23)c1C(F)(F)F [Cpd 14, 1-(7-chloropyrazolo[1,5-a]pyridin-4-yl)-5-(trifluoromethyl)-N-(2-(trifluoromethyl)pyridin-4-yl)-1H-pyrazole-4-carboxamide]
89 nM | 138 nM | 65 nM | N#Cc1ccc(-n2ncc(C(=O)Nc3ccnc(C(F)(F)F)c3)c2C(F)(F)F)c2ccnn12 [Cpd 11, 1-(7-cyanopyrazolo[1,5-a]pyridin-4-yl)-5-(trifluoromethyl)-N-(2-(trifluoromethyl)pyridin-4-yl)-1H-pyrazole-4-carboxamide]
30 nM | 257 nM | 105 nM | O=C(Nc1cnc(-c2ncco2)c(Cl)c1)c1cnn(-c2ccc(F)c3nccn23)c1C(F)(F)F [Cpd 6, N-(5-chloro-6-(oxazol-2-yl)pyridin-3-yl)-1-(8-fluoroimidazo[1,2-a]pyridin-5-yl)-5-(trifluoromethyl)-1H-pyrazole-4-carboxamide]
